# Laboratory results reported in patent publication US7750043B2, “Modified retinoid compounds and their uses” (Wisconsin Alumni Research Foundation, priority 2003, dated 2010).
# Entries after “also recorded” stand apart in the source; their conditions may differ.
# How the values were obtained:
# [1] = tested on: vitamin A-deficient rats; assay: Growth of vitamin A-deficient rats given the compounds orally in Wesson oil; assay type: in vivo, rat; settings: for growth of vitamin A-deficient rats, comparison between atRA and its esters / growth of vitamin A-deficient rats compared to vehicle control: 83 pmole/day, FIG. 4; for growth of vitamin A-deficient rats, comparison between atRA and its esters / growth of vitamin A-deficient rats compared to vehicle control / growth (weight change) of vitamin A-deficient rats compared to atRA / growth response of vitamin A-deficient rats compared to atRA: 5 days; for in vivo activity relative to atRA (growth support): oral, vitamin A-deficient rats, overall estimate; for growth (weight change) of vitamin A-deficient rats compared to atRA: 83 pmoles/day oral in Wesson oil, FIG. 1; for growth response of vitamin A-deficient rats compared to atRA: 166 pmoles/day (50 μg/day atRA or 59.5 μg/day t-butyl-RA), FIG. 2
# Description: The first test was to determine if the esterified compounds when given orally could restore normal growth of vitamin A-deficient rats. For this study, Sprague-Dawley, weanling rats were obtained from Harlan (Indianapolis, Ind.). They were fed the purified vitamin A-deficient diet previously described (Suda et al., 1970, J. Nutr. 100:1049-152) supplemented with vitamins D, E and K (White et al., 1998, Proc. Natl. Acad. Sci. USA 95:13459-13464). When the animals stopped growing and began to lose weight, they were administered the indicated doses per day dissolved in Wesson oil. Controls were given the Wesson oil alone (vehicle group). The weight change over the 5-day study period was analyzed by ANOVA, followed by a matrix of pairwise comparison probabilities using four post-hoc tests when the overall P value was less than 0.05. The post-hoc comparison tests included: Turkey HSD multiple comparisons, Sheffe test, Fisher's least-significant-difference test and the Bonferroni adjustment test.
# Weanling male rats were obtained from the Harlan Company and were housed individually in hanging wire cages and fed the vitamin A-deficient diet described previously (Suda et al., 1970). At approximately 70 days of age, the animals began to show a leveling off of growth and began to show weight loss. At this time, they were used for the following studies: They were given either 0.1 ml of Wesson oil (vehicle) or the indicated dose of atRA dissolved in the vehicle or one of the derivatives at the indicated dose dissolved in the vehicle. Body weights were recorded daily and plotted as cumulative weight gain or loss over the study period as indicated on the graphs. A daily dose of 83 pmoles (25 μg/day) of atRA is near the minimum amount needed to produce normal growth in […] rats as compared to the vehicle controls that continue to lose weight (FIG. 1). […] When the dose was increased to 50 μg/day of atRA or 59.5 μg/day of the t-butyl derivative, as expected, the growth response was identical.
# [2] = tested on: normal male rats; assay: Acute toxicity of atRA versus t-butyl-RA in normal male rats; assay type: in vivo, rat; settings: for body weight change / apparent toxicity: second study, 1 mmole/kg/day for 5 days, FIG. 6
# Description: Two independent toxicity studies were carried out with the t-butyl-RA derivative. […] However, the difference in testes weights between the atRA and t-butyl-RA groups was not statistically significant due to rather large biological variability.
# We next examined the acute toxicity of the t-butyl derivative as compared to the atRA derivative in two independent trails. In these experiments, normal male rats weighing approximately 250-300 grams were used. They were individually housed in cages and given Purina lab chow as well as water ad libitum. […] This is an extremely large dose, and represents at least 3,600 times the amount of the t-butyl derivative needed to support a physiological growth response in vitamin A-deficient rats. […] Another indication of toxicity is testes weight as illustrated in FIG. 7.
# [3] = tested on: pregnant rats (embryos); settings: female, Sprague Dawley, rat, in vivo, 18.5 embryonic day
# Description: Teratogenic activity of atRA is a serious drawback in its therapeutic potential. […] The results of this experiment illustrate that atRA is, indeed, teratogenic and that the t-butyl derivative shares this liability, but only when given at a dose of 10 times higher than that of atRA. Thus, there is a larger window of safety when using the t-butyl-RA derivative when compared to atRA.
# In this experiment, 19 female rats were obtained from Sprague Dawley and were individually housed in cages and given purina chow as well as water ad libitum. After approximately two weeks of acclimation to the animal facility, the females were placed with normal males on the same diet, between 6:00 and 9:00 pm. The following morning, the females were checked for vaginal plugs indicating fertilization. Vaginal smears were then checked for sperm and when shown to be positive, the pregnant rat was placed in the study. At embryonic day 12.3 between 9:00 and 10:00 in the morning, the rats received the following treatments given as a bolus dose in oil orally. Four groups of rats received the vehicle; four received 0.1 mmole/kg (30 mg/kg) atRA in the oil vehicle; another group received an equal molar amount (35.7 mg/kg) of t-butyl-RA; and a final group received a ten-fold higher dose (357 mg/kg) of t-butyl-RA. The embryos were removed by cesarean section on day 18.5 and weighed as well as checked for cleft palette. […]
smiles,measurement,setting,value
"CC1=C(/C=C/C(C)=C/C=C/C(C)=C/C(=O)O)C(C)(C)CCC1 [atRA, all-trans-retinoic acid, reference compound]","growth of vitamin A-deficient rats, comparison between atRA and its esters",[1],superior to that of the cholesterol ester-fed group
"CC1=C(/C=C/C(C)=C/C=C/C(C)=C/C(=O)O[C@H]2CC[C@@]3(C)C(=CCC4C3CC[C@@]3(C)C4CC[C@@H]3[C@H](C)CCCC(C)C)C2)C(C)(C)CCC1 (stereo partly drawn) [cholesterol ester, all-trans-retinoic acid cholesterol ester]",growth of vitamin A-deficient rats compared to vehicle control,[1],significantly enhanced growth compared to vehicle control animals; also recorded: clearly much improved over the vehicle control
same,"growth of vitamin A-deficient rats, comparison between atRA and its esters",[1],less effective
same,in vivo activity relative to atRA (growth support),[1],less effective; also recorded: one-third
"CC1=C(/C=C/C(C)=C/C=C/C(C)=C/C(=O)OC(C)(C)C(C)(C)O)C(C)(C)CCC1 [pinacol ester, all-trans-retinoic acid pinacol ester]",growth of vitamin A-deficient rats compared to vehicle control,[1],significantly enhanced growth compared to vehicle control animals
same,"growth of vitamin A-deficient rats, comparison between atRA and its esters",[1],nearly equivalent to atRA
same,in vivo activity relative to atRA (growth support),[1],nearly as active as atRA
"CC1=C(/C=C/C(C)=C/C=C/C(C)=C/C(=O)OC(C)(C)C)C(C)(C)CCC1 [t-butyl-RA, all-trans-retinoic acid tert-butyl ester]",growth (weight change) of vitamin A-deficient rats compared to atRA,[1],did not differ significantly from that of the group fed an equal molar amount of atRA
same,growth (weight change) of vitamin A-deficient rats compared to atRA,[1]; listed as t-butyl derivative,did not differ from that of atRA
same,growth response of vitamin A-deficient rats compared to atRA,[1],equivalent
same,growth response of vitamin A-deficient rats compared to atRA,[1]; listed as t-butyl derivative,identical
same,in vivo activity relative to atRA (growth support),[1],equal to atRA in potency and efficacy
same,in vivo activity relative to atRA (growth support),[1]; listed as t-butyl derivative,as active as atRA
same,in vivo activity relative to atRA (growth support),[1]; listed as t-butyrate ester,as active in vivo when given orally as is atRA
same,non-toxic dose as multiple of the amount needed to support a physiological growth response,[2]; 1 mmole/kg/day (357 mg/kg/day) versus growth dose in vitamin A-deficient rats,"at least 3,600 times"
same,testes weight,"[2]; 1 mmole/kg/day, FIG. 7, listed as t-butyl derivative",no such indication; also recorded: similar
same,body weight change,"[2]; first study, 1 mmole/kg/day (300 mg/kg/day atRA, 357 mg/kg/day t-butyl-RA), 7 days, FIG. 5",continued growth; also recorded: did not cause a weight loss
same,other signs of toxicity,"[2]; first study, 1 mmole/kg/day, 7 days, FIG. 5",no other externally obvious toxicity
same,body weight change / apparent toxicity,[2],no apparent toxicity
same,body weight change / apparent toxicity,[2]; listed as t-butyl derivative,normal growth
same,dose relative to atRA required to produce equivalent teratogenic effects,[3],10
same,times less teratogenic than atRA,[3],approximately 10 times
